{"source": "patent US10172825B2", "about": "“Pharmacological treatment of cognitive impairment” (priority 2006, dated 2019)", "key": {"Ts65Dn mice [1]": {"system": "Ts65Dn mice", "assay": "Two-object based object recognition task", "type": "in vivo, mouse", "details": "for Object recognition memory, summary statement: chronic administration; for Persistence of cognitive improvement after drug treatment, summary statement: after cessation of chronic treatment", "source_text": "The object recognition task, a behavioral assay not requiring explicit rule learning or prolonged training, is based on the innate tendency of mice to differentially explore novel objects over familiar ones. Animals are submitted to daily handling sessions and are given an opportunity to habituate to a black acrylic, boxed enclosure, where they are exposed to two different objects during a 15-min training session. […] All are generally consistent in height and volume, and are symmetrical on a horizontal plane. They are set in two corners of the apparatus, positioned across from one another along its diameter. Subsequently, a 15-min. testing session is conducted 24 h after training. Here, the mice are presented with the object they had explored the previous day, and a new item (the objects being alternatively positioned in one corner or another in a balanced fashion).\nMemory is operationally defined as the proportion of time animals spend investigating the novel object minus the proportion spent investigating the familiar one (Discrimination Index, DI=[Novel Object Exploration Time/Total Exploration Time−Familiar Object Exploration Time/Total Exploration Time]×100), where exploration constitutes any investigative behavior (i.e., head orientation, sniffing) or deliberate contact (i.e. rearing, licking) that occurs with each object. Behavioral trials are recorded by a tripod-mounted digital camera. Importantly, the object recognition task can be used repeatedly to evaluate rodent memory across time, and across various drug treatment regiments. Mice are trained and tested once per week, each experimental session separated by a 1-week interval, and are serially presented with new sets of objects. In this scheme, each mouse is considered a naïve subject, and each week's performance is considered an independent observation. Finally, all behavioral data are analyzed by Student's unpaired t tests.\nMoreover, learning performance in the test is not confounded by task aversiveness, a variable common in avoidance paradigms, in food-motivated tasks, and in the Morris water maze (MWM). […] Thus, object recognition is an appropriate rodent cognitive task to assess Ts65Dn learning and memory deficits, and the mitigation of these deficits with pharmacological treatment.\nThe present experiment was carried out in a longitudinal, cross-over fashion, submitting four cohorts of WT and Ts65Dn experiment al pairs to a 4-week testing schedule. […] Note that untreated WT and Ts65Dn pairs had been previously run in order to validate the 2-object recognition test. […] N values reflect the number of observations (repetitions) per treatment. DI values are expressed as mean±SEM.\nThe animals were randomly assigned to groups receiving daily servings of chocolate milk or Metrazol (3 mg/kg), and were submitted to two repetitions of object recognition testing. For the purposes of drug delivery, all mice were conditioned to drinking chocolate milk in their home cages and then in cylindrical feeding tubes for 4 days. Subsequent to this conditioning, they were placed daily into the feeding tubes, and presented with small eppendorf caps of milk or a milk-Metrazol cocktail. The milk solutions were typically consumed within 10 min, after which the mice were returned to their home cages. In the current experiment, two cohorts of WT and Ts65Dn mice were submitted to a twoweek testing schedule. […] N values reflect the number of observations (repetitions) per treatment. DI values are expressed as mean±SEM."}, "[2]": {"system": "hippocampal population spikes", "details": "cited from earlier work"}, "[3]": {"details": "barbital-induced narcosis; cited from earlier work"}, "[4]": {"details": "humans, oral intake of a 80-120 mg dose of ginkgo biloba leaf extract; cited from earlier work"}, "rats [5]": {"system": "rats", "details": "cited from earlier work"}, "rats [6]": {"system": "rats", "details": "dose selective for α5-containing GABAA receptors; cited from earlier work"}, "[7]": {"system": "children with Down Syndrome", "details": "children with Down Syndrome (Cocchi 1985); cited from earlier work"}, "[8]": {"details": "cited from earlier work"}, "rats and mice": {"system": "rats and mice", "details": "acute post-training, peripheral injection or oral intake; cited from earlier work"}, "Ts65Dn mice [9]": {"system": "Ts65Dn mice", "assay": "Spontaneous holeboard task", "type": "in vivo, mouse", "source_text": "One cohort of WT and Ts65Dn mice, used to determine the effects of chronic Metrazol on Ts65Dn object recognition performance, were submitted to a spontaneous holeboard task approximately 1 month after the end of Metrazol treatment and object recognition testing. Here, milk- and drug-treated animals (now 5.0 months of age) were habituated to Med Associates open field activity monitors (27.9 cm×27.9 cm) (FIGS. 7b and 7c), and then evaluated for holeboard exploration during a 7-min session. Please note that 2 rounds of holeboard testing were conducted during the light phase of the light/dark cycle, and were separated by a 1-week interval. […] N values reflect the number of observations (repetitions) per treatment. Values are expressed as mean±SEM."}, "Ts65Dn mice [10]": {"system": "Ts65Dn mice", "assay": "Hippocampal LTP after chronic drug administration", "type": "in vivo, mouse", "details": "after chronic once a day administration", "source_text": "It is shown that chronic (but not acute) once a day drug administration in Ts65Dn mice was able to normalize cognitive performance in the novel object recognition and spontaneous alteration tasks, and to rescue hippocampal LTP (see also Fernandez et al. (2007) Nat. Neurosci. 10, 411-413, herein specifically incorporated by reference)."}, "rats [11]": {"system": "rats", "details": "chronic subcutaneous, approximately 10.0 mg/kg, ~9 months; cited from earlier work"}, "[12]": {"details": "cited from earlier work", "remark": "listed apart in the source"}, "Ts65Dn hippocampal LTP": {"system": "Ts65Dn hippocampal LTP", "details": "application of picrotoxin in vitro (Kleschevnikov 2004); cited from earlier work"}, "Ts65Dn mice [13]": {"system": "Ts65Dn mice", "assay": "Accelerating rotorod test (motor learning)", "type": "in vivo, mouse", "details": "chronic PTX treatment (FIG. 12)"}}, "note": "“Also recorded” adds a separate entry of the source. Where two headings read alike, the source gives them in different places."}
{"compound": "CC(C)(C)[C@]1(O)C[C@@H]2OC(=O)C[C@@]23C(=O)O[C@@H]2OC(=O)[C@H](O)[C@]213", "note": "[bilobalide, Bilobalide]", "values": [{"measurement": "Discrimination Index (DI), object recognition memory", "setting": "Ts65Dn mice [1]; Ts65Dn mice, 30 daily i.p. injections through the 4-week testing schedule", "value": "resembled Ts65Dn mice receiving PTX"}, {"measurement": "Object recognition memory, summary statement", "setting": "Ts65Dn mice [1]; Ts65Dn mice", "value": "restore Ts65Dn object recognition performance"}, {"measurement": "Paired pulse inhibition", "setting": "[2]", "value": "decrease paired pulse inhibition"}, {"measurement": "Amplitude of hippocampal population spikes", "setting": "[2]; muscimol-dependent manner", "value": "significantly increase the amplitude of hippocampal population spikes"}, {"measurement": "Sleeping time", "setting": "[3]", "value": "shorten sleeping time"}, {"measurement": "Bioavailability", "setting": "[4]", "value": 70, "unit": "%"}, {"measurement": "Half-life", "setting": "[4]", "value": 3, "unit": "h"}]}
{"compound": "CC1C(=O)OC2C(O)C34C5CC(C(C)(C)C)C36C(OC(=O)C6O)OC4(C(=O)O5)C12O", "note": "(stereo not drawn) [Ginkgolide B, ginkgolide B]", "values": [{"measurement": "Bioavailability", "setting": "[4]", "value": "at least 80%"}, {"measurement": "Half-life", "setting": "[4]", "value": 6, "unit": "h"}]}
{"compound": "CCOC(=O)c1ncn2c1[C@@H]1CCCN1C(=O)c1cc(OC)ccc1-2", "note": "[L-655,708]", "values": [{"measurement": "Cognition", "setting": "rats [5]", "value": "enhance cognition in rats"}, {"measurement": "Pro-convulsant effect", "setting": "rats [6]", "value": "not pro-convulsant"}]}
{"compound": "CN1C(=O)CN=C(c2ccccc2)c2cc(Cl)ccc21", "note": "[diazepam]", "values": [{"measurement": "Depression", "setting": "[7]", "value": "reducing depression"}]}
{"compound": "C1CCc2nnnn2CC1", "note": "[Metrazol, pentamethylenetetrazol]", "values": [{"measurement": "Persistence of cognitive improvement after drug treatment, summary statement", "setting": "Ts65Dn mice [1]; Ts65Dn mice", "value": "found to have longevity in its effects for weeks after treatment"}, {"measurement": "Persistence of cognitive improvement after drug treatment, summary statement", "setting": "Ts65Dn mice [1]; Ts65Dn mice, listed as PTZ", "value": "persistent, post-drug recovery of Ts65Dn cognition"}, {"measurement": "Object recognition memory, summary statement", "setting": "Ts65Dn mice [1]; Ts65Dn mice", "value": "restore Ts65Dn object recognition performance"}, {"measurement": "Discrimination Index (DI), object recognition memory", "setting": "Ts65Dn mice [1]; Ts65Dn mice, daily oral Metrazol 3 mg/kg in milk, compared with Ts65Dn mice given milk alone (p<0.03)", "value": "significantly higher than Ts65Dn mice administered milk alone"}, {"measurement": "Discrimination Index (DI), object recognition memory", "setting": "Ts65Dn mice [1]; Ts65Dn mice, daily oral Metrazol 3 mg/kg in milk, two weeks, compared with WT mice given milk (p<0.16) or Metrazol (p<0.47)", "value": "DI scores on par with those of WT mice given milk"}, {"measurement": "Distribution between brain regions", "setting": "[8]; after intraperitoneal injection, cerebellum, midbrain, cortex", "value": "allocated evenly between the 3 major brain divisions"}, {"measurement": "Time to maximum physiological levels", "setting": "[8]; after oral intake or systemic injection", "value": "5-10 min"}, {"measurement": "Blood-brain barrier passage", "setting": "[8]; in vivo", "value": "readily crosses the blood-brain barrier"}, {"measurement": "Half-life", "setting": "[8]; in vivo", "value": "1 to 2", "unit": "h"}, {"measurement": "Volume of distribution", "setting": "[8]; in vivo", "value": "approximates the volume of total body water"}, {"measurement": "Learning and memory", "setting": "rats and mice", "value": "facilitate normal learning and memory in rats and mice"}, {"measurement": "Holeboard exploration efficiency (head-dips into previously explored holes)", "setting": "Ts65Dn mice [9]; Ts65Dn mice about 1 month after end of Metrazol treatment, compared with WT-milk (p>0.07) and WT-Metrazol (p<0.31)", "value": "showed similar exploration efficiency"}, {"measurement": "Holeboard exploration efficiency, summary statement", "setting": "Ts65Dn mice [9]; Ts65Dn mice after GABA antagonist treatment with Metrazol", "value": "rescued and persevere in Ts65Dn mice"}, {"measurement": "Post-drug recovery of hippocampal LTP", "setting": "Ts65Dn mice [10]", "value": "post-drug recovery of Ts65Dn cognition and LTP lasting for several months"}, {"measurement": "Reversal learning in a shock-motivated, spatial maze task", "setting": "rats [11]", "value": "elevates reversal learning"}, {"measurement": "Signs of neuronal aging in the hippocampus", "setting": "rats [11]", "value": "curtails signs of neuronal aging in the hippocampus"}, {"measurement": "Adverse or toxic effects", "setting": "[12]; humans, dose range of less than about 100-400 mg/day", "value": "little to no adverse or toxic effects"}, {"measurement": "Electrocardiographic tracings", "setting": "[12]; patients on Metrazol", "value": "no abnormalities in their electrocardiographic tracings"}, {"measurement": "Temperature curves, respiration, blood sugar, icteric index, pulse rate", "setting": "[12]; patients on Metrazol", "value": "no changes in temperature curves, respiration, blood sugar, icteric index or pulse rate"}]}
{"compound": "Picrotoxin [PTX]", "values": [{"measurement": "Time normal object recognition memory is maintained post-treatment", "setting": "Ts65Dn mice [1]; PTX-treated Ts65Dn mice after cessation of chronic treatment", "value": "at least 2 weeks"}, {"measurement": "Object recognition performance", "setting": "Ts65Dn mice [1]; Ts65Dn mice, acute PTX (FIG. 11)", "value": "Unable to Reliably Rescue Ts65Dn Performance"}, {"measurement": "Persistence of cognitive improvement after drug treatment, summary statement", "setting": "Ts65Dn mice [1]; Ts65Dn mice", "value": "maintained post drug treatment"}, {"measurement": "Object recognition memory, summary statement", "setting": "Ts65Dn mice [1]; Ts65Dn mice", "value": "able to recover Ts65Dn declarative memory"}, {"measurement": "Object recognition memory, summary statement", "setting": "Ts65Dn mice [1]; Ts65Dn mice, listed as Picrotoxin", "value": "normalizes object recognition memory in Ts65Dn mice"}, {"measurement": "Object recognition memory, summary statement", "setting": "Ts65Dn mice [1]; Ts65Dn mice, listed as picrotoxin", "value": "normalizes learning of Ts65Dn mice in an object recognition task"}, {"measurement": "Deficits in Ts65Dn hippocampal LTP", "setting": "Ts65Dn hippocampal LTP", "value": "shown to reverse"}, {"measurement": "Rotorod performance / motor learning", "setting": "Ts65Dn mice [13]", "value": "does not influence Ts65Dn motor learning; also recorded: does not influence Ts65Dn Rotorod Performance"}]}
